{"source": "patent US11344512B2", "about": "“Titration of tapentadol” (Grünenthal GmbH, priority 2007, dated 2022)", "key": {"[1]": {"system": "patients with chronic low back pain or chronic pain from osteoarthritis of the knee or hip", "assay": "Example E-3: opioid withdrawal after 90 days treatment (COWS and SOWS questionnaires), phase III trial", "format": "in vivo, human (patients)", "conditions": "for patients reporting mild-to-moderate withdrawal symptoms (COWS assessment): 2 to 4 days after study medication ceased, after 90 days treatment", "protocol": "The symptoms of opioid withdrawal following long-term treatment (90 days) with tapentadol immediate release (IR) compared with oxycodone IR were evaluated in a randomized, double-blind, active-control, parallel group, flexible dose, multicenter phase III trial of patients with chronic low back pain of chronic pain from osteoarthritis of the knee or hip. Patients (N=849) were randomly assigned in a 4:1 ratio to a flexible dose of tapentadol IR (50 or 100 mg/dose; maximum 600 mg/day) or oxycodone IR (10 or 15 mg/dose; maximum 90 mg/day) every 4 to 6 hours. Symptoms of withdrawal following opioid discontinuation were examined using the Clinical Opioid Withdrawal Score (COWS) and the Subjective Opioid Withdrawal Score (SOWS) questionnaires. […] The mean total SOWS score, 2 to 4 days after last study drug intake, was lower for the tapentadol IR group (6.9) than the oxycodone IR group (8.7). […] In addition, 5 or more days after last study drug intake, the mean total SOWS score was 6.3 for the tapentadol IR group and 7.0 for the oxycodone IR group (no significant difference)."}, "[2]": {"system": "patients with osteoarthritis of hip/knee or chronic low back pain", "assay": "Clinical studies C-1/C-2 (without titration) and E-1/E-2 (forced titration): occurrence of somnolence", "format": "in vivo, human (patients)", "protocol": "A randomized, double-blind, multiple dose, parallel-group study assessing the efficacy and safety of 3 dosages of tapentadol prolonged release (bid) (25 mg, 50 mg and 100 mg) compared to oxycodone prolonged release (bid) 20 mg and placebo over 28 days in patients with hip and/or knee-joint osteoarthritis. Subjects: 40-75 years old, male and female patients. 375 patients, randomized to placebo, standard opioid, tapentadol. Treatment Regimen: Day 1 only evening dose Day 2—Day 28 bid Day 29 only morning dose.\nA randomized, double-blind, multiple dose, parallel-group study assessing the efficacy and safety of tapentadol prolonged release 25, 50 and 100 mg compared to placebo and tramadol prolonged release 100 mg in patients with chronic low back pain.\nMale and female patients 18-75 years old with a history of low back pain of at least 6 months, requiring regular treatment on at least 60 out of last 90 days.\n430 patients, randomized to placebo, tramadol 100 mg prolonged release, 3 dosages tapentadol.\nA randomized, double-blind, parallel-group study assessing the efficacy and safety of two titration regimen of tapentadol prolonged release (25 mg, 50 mg, 100 mg and 100 mg, 150 mg, 200 mg of free base of tapentadol) given orally twice daily (bid) compared to placebo and oxycodone controlled release (10 mg, 10 mg, 20 mg) in patients with chronic pain due to osteoarthritis of the knee. Subjects: Male and female patients≥40 years old with a diagnosis of osteoarthritis of the knee Treatment Regimen: Patients started with the lowest dose of the titration phase for the first 3 days and up-titrated to the intermediate dose on day 4. Subjects were maintained at the intermediate dose for the next 11 days. After these 11 days patients started the maintenance phase and received the highest dose of each regimen for the remaining 14 days. Subjects who were unable to tolerate the highest dose after having received that dose for at least 3 days were allowed to down titrate to the intermediate dose. Down titration was permitted only once during the fixed-dose maintenance phase.\nA randomized, double-blind, parallel-group study that compares the efficacy and safety of two titration regimens of tapentadol prolonged release (25 mg-50 mg-100 mg and 100 mg-150 mg-200 mg) given orally twice daily (bid) and tramadol prolonged release (100 mg-150 mg-200 mg) p.o. bid to placebo in patients with moderate to severe chronic pain due to chronic low back pain. Subjects: Male and female patients≥18 years old with a diagnosis of low back pain of at least 3 months. Treatment Regimen:\nPatients took the first dose and continued on the lowest dose in their treatment regimen for 3 days (i.e. 6 doses). After the sixth dose, patients titrated to the intermediate dose in their treatment regimen and continued on this intermediate dose for 11 days (i.e. 22 doses). Up-titration was mandatory. Patients who were unable to tolerate study medication were removed from the study. After the twenty second dose, patients titrated to the final dose in their treatment regimen and continued on this final dose for 14 days.\nConcentration measurements were taken from comparative examples C-1 and C-2, both without dose titration. Examples E-1 and E-2 in the same indications were used to get PK/PD information under dose titration. In all studies adverse events were noted."}, "pain": {"system": "pain", "assay": "Preliminary clinical trials: pain treating effect (VAS) versus serum concentration of tapentadol", "format": "in vivo, human (individuals)", "protocol": "In one preferred embodiment dose a is below the pharmaceutically effective pain treating dose of tapentadol. The pharmaceutically effective pain treating dose of tapentadol may vary individually and can be determined by routine experimentation for a given subject. Usually, the minimum pharmaceutically effective pain treating dose will be above 50 mg twice daily (bid). Preferably, effective pain treatment is to be regarded as at least 5% decrease in pain in an individual, more preferably at least 10%, still more preferably at least 15% and most preferably at least 20% decrease in pain in an individual, taking into account that low serum concentrations of tapentadol suffice to show an effect in individuals that are relatively sensitive and higher serum concentrations of tapentadol are needed to show an effect in persons that are relatively unsensitive."}, "adverse effects": {"system": "adverse effects", "conditions": "cited from earlier work"}, "[3]": {"conditions": "2 to 4 days after last study drug intake"}, "[4]": {"conditions": "5 or more days after last study drug intake"}}}
{"smiles": "COc1ccc2c3c1O[C@H]1C(=O)CC[C@@]4(O)[C@@H](C2)N(C)CC[C@]314", "note": "[oxycodone IR, reference compound]", "values": [{"measurement": "mean total SOWS score", "setting": "[1]; [3]", "result": 8.7}, {"measurement": "patients reporting mild-to-moderate withdrawal symptoms (COWS assessment)", "setting": "[1]", "result": 29, "unit": "%"}, {"measurement": "mean total SOWS score", "setting": "[1]; [4]", "result": 7.0}]}
{"smiles": "COc1ccc2c3c1O[C@H]1C(=O)CC[C@@]4(O)[C@@H](C2)N(C)CC[C@]314", "note": "[oxycodone, reference compound]", "values": [{"measurement": "effect of titration regimen of example E-1 on suppression of somnolence", "setting": "[2]; FIG. 8, oxycodone controlled release", "result": "no comparable effect on the suppression of somnolence"}]}
{"smiles": "CC[C@@H](c1cccc(O)c1)[C@@H](C)CN(C)C", "note": "[tapentadol IR]", "values": [{"measurement": "mean total SOWS score", "setting": "[1]; [3]", "result": 6.9}, {"measurement": "patients reporting mild-to-moderate withdrawal symptoms (COWS assessment)", "setting": "[1]", "result": 17, "unit": "%"}, {"measurement": "mean total SOWS score", "setting": "[1]; [4]", "result": 6.3}]}
{"smiles": "CC[C@@H](c1cccc(O)c1)[C@@H](C)CN(C)C", "note": "[tapentadol, (−)-(1R,2R)-3-(3-dimethylamino-1-ethyl-2-methyl-propyl)-phenol]", "values": [{"measurement": "visual analog scale (VAS) in a population mean", "setting": "pain; at serum concentration about 5 ng/ml", "result": "approximately −2 mm"}, {"measurement": "visual analog scale (VAS) in a population mean", "setting": "pain; at serum concentration about 300 ng/ml", "result": "approximately −15 mm"}, {"measurement": "concentration at which adverse events (somnolence) occurred, without titration (C-1, C-2) compared to dose titration (E-1, E-2)", "setting": "[2]; FIG. 5 and 6, prolonged release", "result": "much lower concentration"}, {"measurement": "somnolence occurred in % of patients", "setting": "[2]; studies using forced titration, total daily dose 200 mg, pooled data", "result": 6, "unit": "%"}, {"measurement": "somnolence occurred in % of patients", "setting": "[2]; studies using forced titration, total daily dose 400 mg, pooled data", "result": 12, "unit": "%"}, {"measurement": "somnolence occurred in % of patients", "setting": "[2]; studies without titration, total daily dose 172 mg, pooled data from both studies", "result": 4.3, "unit": "%"}]}
{"smiles": "COc1cccc(C2(O)CCCCC2CN(C)C)c1", "note": "(stereo not drawn) [tramadol]", "values": [{"measurement": "frequency of dizziness, nausea and vomiting with slow titration", "setting": "adverse effects", "result": "reduce the frequency"}, {"measurement": "frequency of somnolence with slow titration", "setting": "adverse effects", "result": "not significantly reduced"}]}
